Measured values: US20250223303A1, “TRICYCLIC BORONIC ACID DERIVATIVE, AND PREPARATION METHOD THEREFOR AND APPLICATION THEREOF” (priority 2021, published 2025)

Columns and labels:
[1] = molecular target: T1, IMP-1 (Serratia marcescens, UniProt P52699); experiment: Enzyme activity test (FC5 fluorescent substrate), IMP-1; assay type: biochemical; conditions: enzyme 20 pM, substrate FC5 15 μM
T1 construct: purchased GenScript Biotech Co., Ltd
Description: (§1) Compound stock solution: the compound was prepared as a 50 mM DMSO stock solution. […] After aliquoting, the compound stock solutions were stored at −20° C.
(§2) Preparation and storage of antibiotic substrate stock solution: antibiotic fluorescent substrate FC5 was synthesized internally and prepared as a 2 mM stock solution, which was stored at −20° C. after aliquoting.
(§3) Storage of β-lactamases: each […] was synthesized by GenScript Biotech Co., Ltd., and stored at −80° C. after aliquoting to avoid repeated freezing and thawing.
(§4) Preparation of enzyme activity reaction buffer: SBL buffer: PBS pH 7.4, 0.01% (v/v) Triton X-100; MBL buffer: 50 Mm HEPES in PBS pH 7.2, 1 μM ZnSO4, 1 μg/mL BSA, 0.010% v/v Triton X-100
(§5) a) The compound to be tested and buffer were taken out and warmed to room temperature.
(§6) b) Each compound was diluted with DMSO and buffer to the initial experimental concentration (Table 2), and then the compound was diluted 3-fold for a total of 10 concentrations.
(§7) c) Diluted compounds were added to wells 1 to 20 of a 384-well black plate at 2 replicate wells per concentration, 5 μL per well. 5 µL of DMSO was added to wells 21 to 24.
(§8) d) Each enzyme was diluted to the experimental concentration (Table 2) in SBL and MBL buffers, and finally 35 μL/well was added, with a total of 22 wells. 35 μL buffer was added to wells 23 to 24. Wells 21 to well 22 served as the maximum test values (Max), while wells 23 to 24 were designated as the minimum test values (Min).
(§9) e) The 384-well plate was centrifuged quickly and incubated for 10 minutes at room temperature.
(§10) f) The antibiotic substrate FC5 was diluted in buffer to the experimental concentration of each enzyme (Table 2).
(§11) g) The incubated 384-well plate was taken out and FC-5 was added to wells […]. The 384-well plate was centrifuged rapidly and promptly transferred to a microplate reader for reading.
(§12) h) The fluorescence intensity was measured at 355 nm excitation light/460 nm emission light in the microplate reader, and the fluorescence intensity was measured every three minutes for a total of 10 measurements.
(§13) Initial velocity of enzyme reaction V: Subtract the background reading (Min wells) without enzyme from each fluorescence intensity reading, and then perform on a linear regression analysis on each compound concentration group. The slope is the initial velocity of enzyme reaction (V) at each compound concentration.
(§14) Dose-effect curve and IC50 calculation of compounds: The initial velocity of enzyme reaction under the effect of each concentration of compounds was subjected to nonlinear regression fitting. The IC50 (half-maximal inhibitory concentration) of each compound was calculated using the formula […] (Vi: the initial velocity of enzyme reaction at each compound concentration; V0: initial velocity of enzyme reaction without the compound (Max wells). The software used was Graphpad prism 8.

[2] = molecular target: T2, KPC-2 (Klebsiella pneumoniae, UniProt Q9F663); experiment: Enzyme activity test (FC5 fluorescent substrate), KPC-2; assay type: biochemical; conditions: enzyme 45 pM, substrate FC5 25 μM
T2 construct: purchased GenScript Biotech Co., Ltd
T2 sequence (Q9F663 25-293 limits assumed): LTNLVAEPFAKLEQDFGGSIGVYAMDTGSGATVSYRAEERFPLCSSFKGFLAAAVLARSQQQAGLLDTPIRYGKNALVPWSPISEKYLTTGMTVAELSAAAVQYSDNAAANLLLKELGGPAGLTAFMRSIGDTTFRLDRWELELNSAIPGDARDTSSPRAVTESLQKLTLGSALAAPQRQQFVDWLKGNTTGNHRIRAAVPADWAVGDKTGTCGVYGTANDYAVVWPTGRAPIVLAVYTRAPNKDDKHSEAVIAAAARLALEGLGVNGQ
Description: as §1, §2, §3, §4, §5, §6, §7, §8, §9, §10, §11, §12, §13, §14

[3] = molecular target: T3, OXA-48 (Klebsiella pneumoniae, UniProt Q6XEC0); experiment: Enzyme activity test (FC5 fluorescent substrate), OXA-48; assay type: biochemical; conditions: enzyme 650 pM, substrate FC5 125 μM
T3 construct: purchased GenScript Biotech Co., Ltd
T3 sequence (Q6XEC0 23-265 limits assumed): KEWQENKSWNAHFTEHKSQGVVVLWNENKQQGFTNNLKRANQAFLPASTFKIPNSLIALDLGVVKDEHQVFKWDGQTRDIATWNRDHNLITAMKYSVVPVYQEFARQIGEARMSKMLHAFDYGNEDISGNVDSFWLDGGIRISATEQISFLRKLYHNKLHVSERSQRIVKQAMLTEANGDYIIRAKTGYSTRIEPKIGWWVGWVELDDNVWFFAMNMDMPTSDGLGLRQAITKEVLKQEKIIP
Description: as §1, §2, §3, §4, §5, §6, §7, §8, §9, §10, §11, §12, §13, §14

[4] = test system: Escherichia coli ARLG 2829; experiment: MIC test of compounds in combination with antibiotics, Escherichia coli ARLG 2829; conditions: Escherichia coli ARLG-2829 NDM-5, OXA-1
[5] = test system: Acinetobacter baumannii ARLG-1853 OXA-23; experiment: MIC test of compounds in combination with antibiotics, Acinetobacter baumannii ARLG-1853; conditions: Acinetobacter baumannii ARLG-1853 OXA-23
Description: 2-Fold gradient dilution of antibiotics: 300 μL of CAMHVIB medium was added to columns 2-12 of a 96-deep well plate. In column 1, 24 μL of antibiotic stock solution and 576 µL of CAMHB medium were added and mixed well, with a concentration of 512 μg/mL. 300 µL of antibiotic solution was transferred from the column 1 to the second column and mixed well. The process was repeated until column 11, and the column 12 was a blank control.
Dilution of combined compounds: the compound was diluted 400-fold to 32 μg/ml with CAMHB medium.
Working solution aliquoting: 25 μL of antibiotics was aliquoted into the 96-U bottom plate with a pipette, and 25 μL of combined compound was added to each well. If antibiotics were used alone, 25 μL of CAMHB medium was added.
Inoculum solution preparation: 5-6 single colonies were selected from the plate and suspended in normal saline. The bacterial suspension was adjusted to 0.2 (i.e., 0.5 McFarland turbidity, with a bacterial concentration was about 1 to 2×10^8 CFU/mL) with a turbidity meter. The bacterial suspension was diluted 100-fold with CAMHB medium for later use.
Inoculation: 50 μL of inoculum solution was transferred to the above 50 μL compound plate with a pipette.
Culture: The 96-U bottom plate was placed in an incubator at 37° C. for 18 to 20 h.

T1 sequence (P52699 19-246 limits assumed): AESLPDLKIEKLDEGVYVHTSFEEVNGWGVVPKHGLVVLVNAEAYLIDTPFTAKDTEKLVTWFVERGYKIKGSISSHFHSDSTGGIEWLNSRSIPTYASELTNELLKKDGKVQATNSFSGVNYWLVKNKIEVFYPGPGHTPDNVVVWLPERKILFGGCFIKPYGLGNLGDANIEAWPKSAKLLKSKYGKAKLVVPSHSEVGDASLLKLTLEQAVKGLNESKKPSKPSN

What does the source list for `NCCNC1CCC(CC(=O)N[C@H]2Cc3cccc(C(=O)O)c3OB2O)CC1` (stereo partly shown) [VNRX-5133, reference compound]?
IC50 [1]: > 10 µM; IC50 [2]: 0.0642 µM; IC50 [3]: 0.343 µM; MIC ([4]; Cefepime + compound (8 μg/mL)): 1 mg/L; MIC ([4]; Meropenem + compound (8 μg/mL)): 1 mg/L; MIC ([5]; Cefepime + compound (8 μg/mL)): 32 mg/L; MIC ([5]; Meropenem + compound (8 μg/mL)): 128 mg/L
